For seven compounds, IC50 results are on record in patent publication US6984653B2, “Heterocyclic compounds, oxazole derivatives, process for preparation of the same and use thereof” (Takeda Pharmaceutical Company Limited, priority 2001, dated 2006).

One assay concerns the target T1, HER2 (Homo sapiens, UniProt P04626).
T1 construct: Taking as 100% the amount of phosphorylation of the HER2 tyrosine in control group; endogenous in cells; host or cells: BT-474 human breast cancer cells
The assay is described as follows: Suppression of receptor tyrosine-phosphorylation in human breast cancer cells BT-474. The format is cell-based. The settings on record: BT-474 cells, 2 hours with test compound, anti-phosphotyrosine antibody blot; read-out: Inhibition of intracellular HER2 phosphorylation BT-474 (IC50: μM). How it is done: A suspension of human breast cancer cell BT-474 (500 μl (300,000 cells)) were sown into a 24-well plate, and cultured at 37° C. in the presence of 5% carbon dioxide. On the following day, 250 μl of a solution of the test compound, which was previously 4-fold diluted, was added. After 2 hours, the extraction was added to stop the reaction and the protein was extracted. This protein was subjected to protein electrophoresis to separate and transferred to a nylon filter. This filter was reacted with an anti-phosphotyrosine antibody; the reaction product was luminated. The amount of film photosensitization was determined using an image analyzer. Taking as 100% the amount of phosphorylation of the HER2 tyrosine in control group, the ratio of the amount of phosphorylation of the HER2 tyrosine in each group receiving a solution of the test compound at each concentration was determined, and the test compound concentration required to achieve 50% suppression by the test compound of the amount of phosphorylation of HER2 tyrosine (IC50 value) was calculated.

The test system of assay [1] is human breast cancer cell BT-474. The assay is described as follows: Inhibitory action on breast cancer cell BT-474 proliferation in vitro (SRB). It counts as cell-based. Conditions: 120 h, BT-474 cells, cultured for 5 days, SRB staining, read-out: Cell growth inhibition BT-474 (IC50: μM). How it is done: A suspension of human breast cancer cell BT-474 (100 μl (6,000 cells)) were sown to a 96-well microplate and cultured at 37° C. in the presence of 5% carbon dioxide. On the following day, 100 μl of a solution of each test compound, which was previously diluted 2-fold, was added, and the cells were cultured for 5 days. After the culture medium containing the test compound was removed, the cells were washed and fixed with 50% trichloroacetic acid, after which a 0.4% (w/v) SRB solution (dissolved in 1% acetic acid) was added to stain the cells (Skehan et al., Journal of the National Cancer Institute, Vol. 82, pp. 1107-1112, 1990). After the pigment solution was removed and the plate was washed with a 1% acetic acid solution, 100 μl of an extract (10 mM Tris solution) was added to dissolve the pigment; absorbance was measured at an absorption wavelength of 550 nm to quantify the amount of cells as protein content. Taking as 100% the absorbance for the control group, which received no test compound solution, the ratio of the absorbance for each treatment group was determined, and the compound concentration required to achieve 50% suppression of the residual cell content relative to the control (IC50 value) was calculated.
On the technique in general: Sulforhodamine B stains cellular protein and so reports cell mass.

T1 sequence (P04626 23-1255): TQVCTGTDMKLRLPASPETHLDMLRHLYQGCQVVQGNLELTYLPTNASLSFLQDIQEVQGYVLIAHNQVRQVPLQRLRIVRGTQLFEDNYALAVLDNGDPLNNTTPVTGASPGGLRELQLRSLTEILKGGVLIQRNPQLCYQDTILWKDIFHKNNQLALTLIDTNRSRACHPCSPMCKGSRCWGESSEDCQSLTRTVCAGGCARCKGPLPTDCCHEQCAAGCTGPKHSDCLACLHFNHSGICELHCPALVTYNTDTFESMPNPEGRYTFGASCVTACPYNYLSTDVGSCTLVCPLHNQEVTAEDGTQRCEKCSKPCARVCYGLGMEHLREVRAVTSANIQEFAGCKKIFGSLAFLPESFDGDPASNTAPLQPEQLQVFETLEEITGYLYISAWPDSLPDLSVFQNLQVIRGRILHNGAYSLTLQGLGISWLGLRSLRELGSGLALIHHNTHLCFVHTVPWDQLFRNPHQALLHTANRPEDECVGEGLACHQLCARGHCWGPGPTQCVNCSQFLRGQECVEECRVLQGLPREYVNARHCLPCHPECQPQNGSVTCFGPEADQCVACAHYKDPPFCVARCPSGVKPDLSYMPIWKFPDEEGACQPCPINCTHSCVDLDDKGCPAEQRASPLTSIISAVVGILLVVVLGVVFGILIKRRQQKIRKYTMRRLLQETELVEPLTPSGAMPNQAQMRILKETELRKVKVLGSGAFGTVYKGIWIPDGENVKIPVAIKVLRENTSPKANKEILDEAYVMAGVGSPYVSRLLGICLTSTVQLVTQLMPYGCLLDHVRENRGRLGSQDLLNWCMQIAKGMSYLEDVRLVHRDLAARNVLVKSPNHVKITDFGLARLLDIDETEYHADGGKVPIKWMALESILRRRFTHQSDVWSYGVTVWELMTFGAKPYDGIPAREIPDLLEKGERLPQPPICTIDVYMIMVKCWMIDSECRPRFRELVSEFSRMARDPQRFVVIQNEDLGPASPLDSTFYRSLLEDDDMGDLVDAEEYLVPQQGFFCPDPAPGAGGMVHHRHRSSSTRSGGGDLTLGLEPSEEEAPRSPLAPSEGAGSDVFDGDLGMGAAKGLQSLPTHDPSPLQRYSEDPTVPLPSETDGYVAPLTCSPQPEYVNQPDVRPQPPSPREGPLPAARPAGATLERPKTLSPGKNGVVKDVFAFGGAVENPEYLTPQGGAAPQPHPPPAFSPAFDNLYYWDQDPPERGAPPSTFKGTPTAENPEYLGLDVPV

As to `CC(C)NC(=O)OCCc1nccn1CCCCc1ccc(OCc2coc(/C=C/c3ccc(C(F)(F)F)cc3)n2)cc1` [Example 1, 2-[1-[4-[4-[[2-[(E)-2-[4-(trifluoromethyl)phenyl]ethenyl]-1,3-oxazol-4-yl]methoxy]phenyl]butyl]-1H-imidazol-2-yl]ethyl isopropylcarbamate], the IC50 (usually the concentration needed to halve the response being measured) on HER2 is under 4 µM; in assay [1], under 0.05 µM.

`O=C(OCCc1nccn1CCCCc1ccc(OCc2coc(/C=C/c3ccc(C(F)(F)F)cc3)n2)cc1)N1CCCC1` [Example 3, 2-[1-[4-[4-[[2-[(E)-2-[4-(trifluoromethyl)phenyl]ethenyl]-1,3-oxazol-4-yl]methoxy]phenyl]butyl]-1H-imidazol-2-yl]ethyl 1-pyrroridinecarboxylate]: the IC50 was under 4 µM on HER2 and under 0.05 µM in assay [1].

Take `CN(C)C(=O)CCc1nccn1CCCCc1ccc(OCc2coc(/C=C/c3ccc(C(F)(F)F)cc3)n2)cc1` [Example 5, N,N-dimethyl-3-[1-[4-[4-[[2-[(E)-2-[4-(trifluoromethyl)phenyl]ethenyl]-1,3-oxazol-4-yl]methoxy]phenyl]butyl]-1H-imidazol-2-yl]propanamide]: the IC50 on HER2 is under 4 µM; in assay [1], under 0.05 µM.

As to `O=C(CCc1nccn1CCCCc1ccc(OCc2coc(/C=C/c3ccc(C(F)(F)F)cc3)n2)cc1)N1CCCC1` [Example 6, 1-{3-[1-(4-{4-[(2-{(E)-2-[4-(trifluoromethyl)phenyl]ethenyl}-1,3-oxazol-4-yl)methoxy]phenyl}butyl)-1H-imidazol-2-yl]propanoyl}pyrrolidine], the IC50 on HER2 was under 4 µM; in assay [1], under 0.05 µM.

Turning to `CS(=O)(=O)CCc1nccn1CCCCc1ccc(OCc2coc(/C=C/c3ccc(F)cc3)n2)cc1` [Example 11, 2-[(E)-2-(4-fluorophenyl)ethenyl]-4-[[4-[4-[2-[2-(methylsulfonyl)ethyl]-1H-imidazol-1-yl]butyl]phenoxy]methyl]-1,3-oxazole], the IC50 on HER2 is under 4 µM.

`CS(=O)(=O)NCCc1nccn1CCCCc1ccc(OCc2coc(/C=C/c3ccc(C(F)(F)F)cc3)n2)cc1` [Example 16, N-[2-[1-[4-[4-[[2-[(E)-2-[4-(trifluoromethyl)phenyl]ethenyl]-1,3-oxazol-4-yl]methoxy]phenyl]butyl]-1H-imidazol-2-yl]ethyl]methanesulfonamide]: the figures for the IC50 (at HER2; in assay [1]) were under 4 µM and 0.15 µM, respectively.

As for `CS(=O)(=O)CCc1nccn1CCCCc1ccc(OCc2coc(/C=C/c3ccc(C(F)(F)F)cc3)n2)cc1` [Example 17, 4-[[4-[4-[2-[2-(methylsulfonyl)ethyl]-1H-imidazol-1-yl]butyl]phenoxy]methyl]-2-[(E)-2-[4-(trifluoromethyl)phenyl]ethenyl]-1,3-oxazole], at HER2, the IC50 was under 4 µM.
